Target: Ba/F3 (EGFR^L858R/T790M/C797S) cells (Homo sapiens, UniProt P00533, T790M/C797S/L858R, cells depend on it)
Assay: Antiproliferative activity on Ba/F3 (EGFR L858R/T790M/C797S) cells (CTG)
Assay type: cell-based
Conditions: 72h incubation, CTG luminescence, read-out: IC50 (nM), antiproliferative activity
Description: 30 nL of the compound dilution was added to a 384-well plate by Echo (Labcyte, Echo550).
The percent inhibition rate (% inhibition) was calculated by the following formula
[formula] • LUMcmpd: Luminescence value of assay compound. • LUMpositive: Average LUM value of positive drug with a concentration of 10 μM. • LUMvehicle: Average LUM value of negative control group without drug treatment.
The nonlinear regression curve (dose response-variable slope) between the value of inhibition rate (%) and the logarithm of compound concentration was fitted with graphpad prism 8.0, the effect dose curve of compound was drawn, and the IC50 value was calculated.
Y=Bottom+(Top−Bottom)/(1+10^((Log IC50−X)*HillSlope)) • X-axis: logarithm of compound concentration; Y axis: inhibition rate (% inhibition).

Sequence of Ba/F3 (EGFR^L858R/T790M/C797S) cells (P00533 whole entry T790M/C797S/L858R): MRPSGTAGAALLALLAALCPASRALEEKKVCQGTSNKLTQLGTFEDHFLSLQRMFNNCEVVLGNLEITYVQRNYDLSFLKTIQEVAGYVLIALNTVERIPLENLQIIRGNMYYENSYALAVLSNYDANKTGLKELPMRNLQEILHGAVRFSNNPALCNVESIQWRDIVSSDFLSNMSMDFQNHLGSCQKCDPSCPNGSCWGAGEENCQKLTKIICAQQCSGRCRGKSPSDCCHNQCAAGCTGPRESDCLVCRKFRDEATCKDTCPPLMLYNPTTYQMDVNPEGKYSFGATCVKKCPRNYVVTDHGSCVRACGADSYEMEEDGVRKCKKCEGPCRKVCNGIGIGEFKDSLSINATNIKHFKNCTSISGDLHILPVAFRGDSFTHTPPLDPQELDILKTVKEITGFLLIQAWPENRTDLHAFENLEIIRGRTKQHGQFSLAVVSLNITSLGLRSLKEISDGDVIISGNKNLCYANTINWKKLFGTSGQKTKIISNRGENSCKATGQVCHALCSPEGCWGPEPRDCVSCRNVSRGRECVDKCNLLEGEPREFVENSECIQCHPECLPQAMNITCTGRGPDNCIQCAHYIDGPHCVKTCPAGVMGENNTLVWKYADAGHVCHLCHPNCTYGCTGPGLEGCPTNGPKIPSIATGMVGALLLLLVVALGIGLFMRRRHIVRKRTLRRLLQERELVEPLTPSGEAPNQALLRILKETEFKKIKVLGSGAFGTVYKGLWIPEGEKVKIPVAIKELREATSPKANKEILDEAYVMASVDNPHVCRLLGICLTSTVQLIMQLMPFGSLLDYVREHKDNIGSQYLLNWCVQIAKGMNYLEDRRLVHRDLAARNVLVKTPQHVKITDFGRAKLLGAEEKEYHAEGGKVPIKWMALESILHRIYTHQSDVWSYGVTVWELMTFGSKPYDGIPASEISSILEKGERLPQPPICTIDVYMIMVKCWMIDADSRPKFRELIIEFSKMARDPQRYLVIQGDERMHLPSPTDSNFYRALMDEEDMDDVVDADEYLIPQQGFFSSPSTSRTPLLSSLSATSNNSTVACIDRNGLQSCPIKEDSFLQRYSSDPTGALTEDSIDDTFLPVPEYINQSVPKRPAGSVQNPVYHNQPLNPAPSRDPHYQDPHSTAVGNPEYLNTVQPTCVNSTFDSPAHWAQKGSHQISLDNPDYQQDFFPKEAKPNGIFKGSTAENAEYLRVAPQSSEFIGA

**Q.** How did the GI50 turn out when `COc1cc(N2CCC(N3CCN(CCCC#Cc4cccc5c4CN(C4CCC(=O)NC4=O)C5=O)CC3)CC2)c(NC(=O)/C=C/C(F)(F)F)cc1Nc1ncc(Cl)c(Nc2ccc3nccnc3c2P(C)(C)=O)n1` (stereo not drawn) [Compound D673, (E)-N-(5-((5-chloro-4-((5-(dimethylphosphoryl)quinoxalin-6-yl)amino)pyrimidin-2-yl)amino)-2-(4-(4-(5-(2-(2,6-dioxopiperidin-3-yl)-1-oxoisoindolin-4-yl)pent-4-yn-1-yl)piperazin-1-yl)piperidin-1-yl)-4-methoxyphenyl)-4,4,4-trifluorobut-2-enamide] was run?
**A.** 20.6 nM

**Q.** `COc1cc(N2CCC(N3CCN(CCCCCC#Cc4cccc5c4CN(C4CCC(=O)NC4=O)C5=O)CC3)CC2)c(NC(=O)/C=C/CN(C)C)cc1Nc1ncc(Br)c(Nc2ccccc2P(C)(C)=O)n1` (stereo not drawn) [Compound D563, N-(5-((5-bromo-4-((2-(dimethylphosphoryl)phenyl)amino)pyrimidin-2-yl)amino)-2-(4-(4-(7-(2-(2,6-dioxopiperidin-3-yl)-1-oxoisoindolin-4-yl)hept-6-yn-1-yl)piperazin-1-yl)piperidin-1-yl)-4-dimethoxyphenyl)-4-(dimethylamino)but-2-enamide] was tested. Which GI50 did it give?
**A.** 306 nM

**Q.** For `CC#CC(=O)Nc1cc(Nc2ncc(Cl)c(Nc3ccccc3P(C)(C)=O)n2)c(OC)cc1N1CCC(N2CCN(C)CC2)CC1` [Comparative compound L521, reference compound], which GI50 is on record?
**A.** 3050 nM

**Q.** Which GI50 does the source give for `C=CC(=O)Nc1cc(Nc2ncc(Cl)c(Nc3ccc4c(c3P(C)(C)=O)OCCO4)n2)c(OC)cc1N1CCC(N2CCN(CCCC#Cc3cccc4c3CN(C3CCC(=O)NC3=O)C4=O)CC2)CC1` (stereo not drawn) [Compound D683] here?
**A.** 22.3 nM

**Q.** How did the GI50 turn out when `CCCC#CC(=O)Nc1cc(Nc2ncc(Cl)c(Nc3ccccc3P(C)(C)=O)n2)c(OC)cc1N1CCC(N2CCN(CCCC#Cc3cccc4c3CN(C3CCC(=O)NC3=O)C4=O)CC2)CC1` (stereo not drawn) [Compound D631, N-(5-((5-chloro-4-((2-(dimethylphosphoryl)phenyl)amino)pyrimidin-2-yl)amino)-2-(4-(4-(5-(2-(2,6-dioxopiperidin-3-yl)-1-oxoisoindolin-4-yl)pent-4-yn-1-yl)piperazin-1-yl)piperidin-1-yl)-4-methoxyphenyl)hex-2-ynamide] was run?
**A.** 48.1 nM

**Q.** For `COc1cc(N2CCC(N3CCN(CCCC#Cc4cccc5c4CN(C4CCC(=O)NC4=O)C5=O)CC3)CC2)c(NC(=O)/C=C/C(F)(F)F)cc1Nc1ncc(Cl)c(Nc2ccccc2P(C)(C)=O)n1` (stereo not drawn) [Compound D596, N-(5-((5-chloro-4-((2-(dimethylphosphoryl)phenyl)amino)pyrimidin-2-yl)amino)-2-(4-(4-(5-(2-(2,6-dioxopiperidin-3-yl)-1-oxoisoindolin-4-yl)pent-4-yn-1-yl)piperazin-1-yl)piperidin-1-yl)-4-methoxyphenyl)-4,4,4-trifluorobut-2-enamide], which GI50 is on record?
**A.** 31.7 nM

**Q.** How did the GI50 turn out when `COc1cc(N2CCC(N3CCN(CCCC#Cc4ccc5c(c4)CN(C4CCC(=O)NC4=O)C5=O)CC3)CC2)c(NC(=O)/C=C/C(F)(F)F)cc1Nc1ncc(Cl)c(Nc2ccccc2P(C)(C)=O)n1` (stereo not drawn) [Compound D622, N-(5-((5-chloro-4-((2-(dimethylphosphoryl)phenyl)amino)pyrimidin-2-yl)amino)-2-(4-(4-(5-(2-(2,6-dioxopiperidin-3-yl)-1-oxoisoindolin-5-yl)pent-4-yn-1-yl)piperazin-1-yl)piperidin-1-yl)-4-methoxyphenyl)-4,4,4-trifluorobut-2-enamide] was run?
**A.** 258 nM

**Q.** Which GI50 does the source give for `C=CC(=O)Nc1cc(Nc2ncc(Br)c(Nc3ccccc3P(C)(C)=O)n2)c(OC)cc1N1CCC(N2CCN(CCCCCC#Cc3cccc4c3CN(C3CCC(=O)NC3=O)C4=O)CC2)CC1` (stereo not drawn) [Compound D503, N-(5-((5-bromo-4-((2-(dimethylphosphoryl)phenyl)amino)pyrimidin-2-yl)amino)-2-(4-(4-(7-(2-(2,6-dioxopiperidin-3-yl)-1-oxoisoindolin-4-yl)hept-6-yn-1-yl)piperazin-1-yl)piperidin-1-yl)-4-methoxyphenyl)acrylamide] here?
**A.** 51.2 nM

**Q.** With `C=CC(=O)Nc1cc(Nc2ncc(Cl)c(Nc3ccccc3P(C)(C)=O)n2)c(OC)cc1N1CCC(N2CCN(CCCCC#Cc3ccc4c(c3)CN(C3CCC(=O)NC3=O)C4=O)CC2)CC1` (stereo not drawn) [Compound D601, N-(5-((5-chloro-4-((2-(dimethylphosphoryl)phenyl)amino)pyrimidin-2-yl)amino)-2-(4-(4-(6-(2-(2,6-dioxopiperidin-3-yl)-1-oxoisoindolin-5-yl)hex-5-yn-1-yl)piperazin-1-yl)piperidin-1-yl)-4-methoxyphenyl)acrylamide] as the molecule, how does the GI50 read?
**A.** 144 nM

**Q.** Which GI50 does the source give for `COc1cc(N2CCC(N3CCN(CCCC#Cc4cccc5c4CN(C4CCC(=O)NC4=O)C5=O)CC3)CC2)c(NC(=O)/C=C/C(F)(F)F)cc1Nc1ncc(Br)c(Nc2ccccc2P(C)(C)=O)n1` (stereo not drawn) [Compound D603, (E)-N-(5-((5-bromo-4-((2-(dimethylphosphoryl)phenyl)amino)pyrimidin-2-yl)amino)-2-(4-(4-(5-(2-(2,6-dioxopiperidin-3-yl)-1-oxoisoindolin-4-yl)pent-4-yn-1-yl)piperazin-1-yl)piperidin-1-yl)-4-methoxyphenyl)-4,4,4-trifluorobut-2-enamide] here?
**A.** 37.1 nM

**Q.** For `CCCC#CC(=O)Nc1cc(Nc2ncc(Br)c(Nc3ccccc3P(C)(C)=O)n2)c(OCC(F)(F)F)cc1N1CCC(N2CCN(CCCC#Cc3cccc4c3CN(C3CCC(=O)NC3=O)C4=O)CC2)CC1` (stereo not drawn) [Compound D856, N-(5-((5-bromo-4-((2-(dimethylphosphoryl)phenyl)amino)pyrimidin-2-yl)amino)-2-(4-(4-(5-(2-(2,6-dioxopiperidin-3-yl)-1-oxoisoindolin-4-yl)pent-4-yn-1-yl)piperazin-1-yl)piperidin-1-yl)-4-(2,2,2-trifluoroethoxy)phenyl)hex-2-ynamide], which GI50 is on record?
**A.** 27.4 nM

**Q.** `C=C(F)C(=O)Nc1cc(Nc2ncc(C(F)(F)F)c(Nc3ccccc3P(C)(C)=O)n2)c(OC)cc1N1CCC(N2CCN(CCCC#Cc3cccc4c3CN(C3CCC(=O)NC3=O)C4=O)CC2)CC1` (stereo not drawn) [Compound D746, N-(5-((4-((2-(dimethylphosphoryl)phenyl)amino)-5-(trifluoromethyl)pyrimidin-2-yl)amino)-2-(4-(4-(5-(2-(2,6-dioxopiperidin-3-yl)-1-oxoisoindolin-4-yl)pent-4-yn-1-yl)piperazin-1-yl)piperidin-1-yl)-4-methoxyphenyl)-2-fluoroacrylamide] was tested. Which GI50 did it give?
**A.** 3.36 nM

**Q.** With `CCCC#CC(=O)Nc1cc(Nc2ncc(C(F)(F)F)c(Nc3ccccc3P(C)(C)=O)n2)c(OC)cc1N1CCC(N2CCN(CCCC#Cc3cccc4c3CN(C3CCC(=O)NC3=O)C4=O)CC2)CC1` (stereo not drawn) [Compound D835, N-(5-((4-((2-(dimethylphosphoryl)phenyl)amino)-5-(trifluoromethyl)pyrimidin-2-yl)amino)-2-(4-(4-(5-(2-(2,6-dioxopiperidin-3-yl)-1-oxoisoindolin-4-yl)pent-4-yn-1-yl)piperazin-1-yl)piperidin-1-yl)-4-methoxyphenyl)hex-2-ynamide] as the molecule, how does the GI50 read?
**A.** 11.9 nM

**Q.** Which GI50 does the source give for `COc1cc(N2CCC(N3CCN(CCCC#Cc4cccc5c4CN(C4CCC(=O)NC4=O)C5=O)CC3)CC2)c(NC(=O)/C=C/C(F)(F)F)cc1Nc1ncc(C(F)(F)F)c(Nc2ccccc2P(C)(C)=O)n1` (stereo not drawn) [Compound D747, (E)-N-(5-((4-((2-(dimethylphosphoryl)phenyl)amino)-5-(trifluoromethyl)pyrimidin-2-yl)amino)-2-(4-(4-(5-(2-(2,6-dioxopiperidin-3-yl)-1-oxoisoindolin-4-yl)pent-4-yn-1-yl)piperazin-1-yl)piperidin-1-yl)-4-methoxyphenyl)-4,4,4-trifluorobut-2-enamide] here?
**A.** 8.77 nM

**Q.** For `C=C(F)C(=O)Nc1cc(Nc2ncc(Cl)c(Nc3ccccc3P(C)(C)=O)n2)ccc1N1CCC(N2CCN(CCCC#Cc3cccc4c3CN(C3CCC(=O)NC3=O)C4=O)CC2)CC1` (stereo not drawn) [Compound D666, N-(5-((5-chloro-4-((2-(dimethylphosphoryl)phenyl)amino)pyrimidin-2-yl)amino)-2-(4-(4-(5-(2-(2,6-dioxopiperidin-3-yl)-1-oxoisoindolin-4-yl)pent-4-yn-1-yl)piperazin-1-yl)piperidin-1-yl)phenyl)-2-fluoroacrylamide], which GI50 is on record?
**A.** 13.7 nM

**Q.** How did the GI50 turn out when `CC#CC(=O)Nc1cc(Nc2ncc(C(F)(F)F)c(Nc3ccccc3P(C)(C)=O)n2)c(OC)cc1N1CCC(N2CCN(CCCC#Cc3cccc4c3CN(C3CCC(=O)NC3=O)C4=O)CC2)CC1` (stereo not drawn) [Compound D748, N-(5-((4-((2-(dimethylphosphoryl)phenyl)amino)-5-(trifluoromethyl)pyrimidin-2-yl)amino)-2-(4-(4-(5-(2-(2,6-dioxopiperidin-3-yl)-1-oxoisoindolin-4-yl)pent-4-yn-1-yl)piperazin-1-yl)piperidin-1-yl)-4-methoxyphenyl)but-2-ynamide] was run?
**A.** 7.76 nM

**Q.** For `C=CC(=O)Nc1cc(Nc2ncc(Br)c(Nc3ccccc3P(C)(C)=O)n2)ccc1N1CCC(N2CCN(CCCC#Cc3cccc4c3CN(C3CCC(=O)NC3=O)C4=O)CC2)CC1` (stereo not drawn) [Compound D549, N-(5-((5-bromo-4-((2-(dimethylphosphoryl)phenyl)amino)pyrimidin-2-yl)amino)-2-(4-(4-(5-(2-(2,6-dioxopiperidin-3-yl)-1-oxoisoindolin-4-yl)pent-4-yn-1-yl)piperazin-1-yl)piperidin-1-yl)phenyl)acrylamide], which GI50 is on record?
**A.** 7.41 nM

**Q.** How did the GI50 turn out when `CC#CC(=O)Nc1cc(Nc2ncc(Br)c(Nc3ccccc3P(C)(C)=O)n2)c(OCC(F)(F)F)cc1N1CCC(N2CCN(CCCC#Cc3cccc4c3CN(C3CCC(=O)NC3=O)C4=O)CC2)CC1` (stereo not drawn) [Compound D845, N-(5-((5-bromo-4-((2-(dimethylphosphoryl)phenyl)amino)pyrimidin-2-yl)amino)-2-(4-(4-(5-(2-(2,6-dioxopiperidin-3-yl)-1-oxoisoindolin-4-yl)pent-4-yn-1-yl)piperazin-1-yl)piperidin-1-yl)-4-(2,2,2-trifluoroethoxy)phenyl)but-2-ynamide] was run?
**A.** 16.9 nM
